According to patent publication US9994824B2, “Method for promoting hair growth using composition comprising PDGF-D treated adipose-derived stem cells” (INDUSTRY-ACADEMIC COOPERATION FOUNDATION, YONSEI UNIVERSITY, priority 2015, dated 2018):

What was measured:
ASCs [1] = experiment: cell proliferation assay (CCK-8 cell numbers); assay type: cell-based, human; conditions: for proliferation of ASCs increased by PDGF-D, effect of inhibitor: inhibitor treatment of PDGF-D-treated ASCs
Description: (§1) Human ASCs were obtained from a subcutaneous fat by liposuction according to a known method (Kim et al. J Dermatol Sci 53:96-102, 2009). ASCs were cultured in an α-MEM medium (Hyclone, Thermo Scientific) with 10% FBS (GIBCO, Invitrogen) and 1% penicillin/streptomycin (GIBCO) at 37° C. in 5% CO2, and cells at 7-9 passages were used. Positive expression of CD44, CD73, CD90, CD105, HLA-1 and PODXL and negative expression of CD34 and CD45 were examined by flow cytometry (Kim et al. Cell Death Dis 4:e588, 2013; Kim et al., Cell Biol Int 38:32-40, 2014), and multipotent differentiation potential for the cells to differentiate into adipocytes, osteocytes and cartilage cells was examined (Song et al. Stem Cells Dev 17:451-461, 2008).
For cell proliferation assay, 7×10^3 of ASCs were seeded on 48-well plates, 24 hours later, a medium was transferred with a 0.2% FBS-containing α-MEM medium, and the following day, cells were treated with PDGF isoforms (10 ng/ml) for 48 hours. Afterward, the medium was removed, the cells were treated with a 10% CCK-8 solution for 2 hours using a CCK-8 assay kit (Dojindo, Japan), and the absorbance was measured at 450 nm, to examine cell numbers.

mitochondria of ASCs = experiment: mitochondrial fission (MitoTracker Red, confocal microscope); assay type: cell-based, human; conditions: PDGF-D-treated ASCs plus inhibitor
Description: ASCs were seeded on a round cover glass and treated with PDGF-D (10 ng/ml) for 24 hours. For mitochondrial staining, 500 nM MitoTracker Red (Molecular Probe, USA) was added to an α-MEM medium, and cells were incubated for 30 minutes, and then the morphology of mitochondria and MitoTracker Red fluorescence were examined using a confocal microscope (Carl Zeiss). In addition, for nuclear staining, cells were fixed with 4% paraformaldehyde for 15 minutes, permeabilized with 0.5% PBS-T for 5 minutes, and stained with DAPI (Sigma, USA) at room temperature for 10 minutes.

ASCs [2] = experiment: cell migration assay (trans-well); assay type: cell-based, human; conditions: for migration of ASCs increased by PDGF-D, effect of inhibitor: inhibitor treatment of PDGF-D-treated ASCs
Description: as §1
Also, for cell migration assay, 2×10^4/well of ASCs were seeded on the upper portion of a trans-well membrane plate (Corning, USA). After 2 hours, PDGF isoforms (10 ng/ml) and an α-MEM medium with 0.2% FBS were introduced to the lower portion of the trans-well membrane plate to culture the PDGF isoforms for 16 to 20 hours. Afterward, cells migrated to the trans-well membrane were fixed with cold ethanol for 20 minutes, and stained with 10% crystal-violet (Sigma, USA) at room temperature for 30 minutes.

SERPINE1 = SERPINE1 mRNA expression (PCR array, qPCR); assay type: cell-based, human; conditions: PDGF-D-treated ASCs plus inhibitor
Description: (§2) In this example, PDGF-D target genes were examined using a human signaling pathwayfinder RT^2 profiler PCR array (signaling pathway: PAHS-041ZD).
(§3) 2.5×10^5 of ASCs were seeded on 60-mm dishes, cultured in a 0.2% FBS-containing α-MEM medium, and treated with PDGF-D for 4-24 hours. Afterward, total RNA was extracted using an RNA extraction kit (RNeasy, Qiagen), cDNA was synthesized from 500 ng of total RNA by a cDNA synthesis kit (A3500, Promega) using 1,000 U reverse transcriptase and 50 ng/μl oligo(dT) primers. Gene expression was detected by a PCR array kit (Qiagen) according to the manufacturer's instructions, and qPCR was performed on a step one plus real-time PCR system (Applied Biosystems, Invitrogen) using a SYBR Green PCR master mix (Takara Bio, Japan).

ROS generation in ASCs = experiment: intracellular ROS generation using DCF-DA; assay type: cell-based, human; conditions: PDGF-D-treated ASCs plus inhibitor
Description: ROS generation in cells were measured by a method using DCF-DA (Molecular probe, USA) (Kim et al., Stem Cells Dev 21:2212-2221, 2012; Kim et al., Stem Cells Dev 20:1753-1761, 2011), and mitochondrial ROS generation was measured using Mito-Sox (Molecular probe, USA). ASCs were seeded on 60-mm dishes, treated with PDGF-D (10 ng/ml) and 5 μM Mito-Sox and incubated in a dark place for 2 hours, and then flow cytometry was performed.

BCL2A1 = BCL2A1 mRNA expression (PCR array, qPCR); assay type: cell-based, human; conditions: PDGF-D-treated ASCs plus inhibitor
Description: as §2, §3

[3] = system: growth factors VEGFA, FGF1, FGF5, BMP8B, LIF, INHBA, IL11 and HBEGF; experiment: growth factor expression (RT2 profiler PCR array of human growth factor, qPCR); assay type: cell-based
Description: Then, the paracrine effect of PDGF families was examined using an RT^2 profiler PCR array of a human growth factor (growth factor pathway: PAHS-041ZA).
The growth factor expression was measured by an RT^2 profiler PCR array (FIG. 9A).

Molecule: COc1cc(-n2c(=S)[nH]c3ccccc3c2=O)c(Cl)cc1Cl [Mdivi-1]
- proliferation of ASCs increased by PDGF-D, effect of inhibitor (ASCs [1]): considerably decreased
- mitochondrial fission induced by PDGF-D treatment, effect of inhibitor (mitochondria of ASCs): decreased
- migration of ASCs increased by PDGF-D, effect of inhibitor (ASCs [2]): considerably decreased

Molecule: CC1(C)CC(C(=O)OCCCCCCCCCC[P+](c2ccccc2)(c2ccccc2)c2ccccc2)C(C)(C)N1O (stereo not drawn) [Mito-CP]
- SERPINE1 expression, effect of inhibitor (SERPINE1): considerably decreased
- DCF-DA fluorescence, effect of inhibitor/scavenger (ROS generation in ASCs): considerably decreased
- proliferation of ASCs increased by PDGF-D, effect of inhibitor (ASCs [1]): considerably decreased
- BCL2A1 expression, effect of inhibitor (BCL2A1): no influence
- migration of ASCs increased by PDGF-D, effect of inhibitor (ASCs [2]): considerably decreased

Molecule: S=C(S)N1CCCC1 [PDTC]
- BCL2A1 expression, effect of inhibitor (BCL2A1): decreased

Molecule: N#CC(=C(/N)Sc1ccccc1N)/C(C#N)=C(\N)Sc1ccccc1N [U0126]
- proliferation of ASCs increased by PDGF-D, effect of inhibitor (ASCs [1]): not influenced
- migration of ASCs increased by PDGF-D, effect of inhibitor (ASCs [2]): not influenced
- expression of a growth factor induced by PDGF-D, effect of inhibitor (PCR array) ([3]; 10 μM inhibitor, RT2 profiler PCR array): inhibited
- expression of the growth factor induced by PDGF-D, effect of inhibitor (qPCR) ([3]; qPCR): inhibited

Molecule: COCCOc1ccc2c(c1)ncn2-c1ccc2cccc(N3CCC(N)CC3)c2n1 [cp673451]
- SERPINE1 expression, effect of inhibitor (SERPINE1): decreased
- DCF-DA fluorescence, effect of inhibitor/scavenger (ROS generation in ASCs): considerably decreased
- BCL2A1 expression, effect of inhibitor (BCL2A1): decreased

B1: PDGF-B: PDGF isoform growth factor protein, purchased from Sigma (protein, UniProt P01127 82-190, looked up)
Platelet-derived growth …: SLGSLTIAEPAMIAECKTRTEVFEISRRLIDRTNANFLVWPPCVEVQRCSGCCNNRNVQCRPTQVQLRPVQVRKIEIVRKKPIFKKATVTLEDHLACKCETVAAARPVT
- cell proliferation (cell numbers) (ASCs [1]; PDGF isoforms 10 ng/ml, 48 hours, 0.2% FBS α-MEM): considerably enhanced twice or more
- cell migration (ASCs [2]; PDGF isoforms 10 ng/ml, 16 to 20 hours, 0.2% FBS α-MEM): considerably enhanced twice or more
